In article PMC9368981, “The γ-Core Motif Peptides of AMPs from Grasses Display Inhibitory Activity against Human and Plant Pathogens” (International Journal of Molecular Sciences, 2022):
Where a SMILES comes first, the peptide text is derived from it.

Columns and labels:
C. albicans cells = experiment: Propidium iodide staining, fluorescence microscopy; format: cell-based, Candida albicans; conditions: peptide 300 µM, 30 °C, 1 h, 0.03 mM PI 15 min
Method: (§1) Their ability to disturb the integrity of pathogen membranes was assayed by staining with propidium iodide of C. albicans and Cr. neoformans cells preliminarily incubated with the peptides. The results were visualized by fluorescent microscopy and quantified by flow cytometry (Figure 5, Figure 6 and Figure 7).
(§2) Staining of yeast cells with propidium iodide in the presence of the γ-core peptides was carried out according to the protocol described earlier. C. albicans or Cr. neoformans cells (24 h culture in YPD-P at a cell concentration of 2 × 10^8/mL) were incubated with the peptide at a concentration of 300 µM at 30 °C for 1 h. After incubation, 1 mL of the cells was stained with 0.03 mM propidium iodide (Sigma, St. Louis, MO, USA). The staining proceeded for 15 min at 30 °C. The fluorescence was recorded on an AXIO Imager A1 fluorescence microscope (ZEISS, Göttingen, Germany) using a Zeiss filter set 56 HE.

[1] = system: Candida albicans VKM Y-2994; format: cell-based; conditions: for Inhibition of C. albicans at the highest tested concentration: inhibition curves (Figure 4), highest tested concentration (300 µM)
Method: (§3) The antimicrobial activity of synthetic peptides was tested against a panel of human and plant pathogens. Among them were the yeasts Candida albicans VKM Y-2994 and Cryptococcus neoformans VKM Y-2755, the plant pathogenic bacteria Clavibacter michiganensis subsp. michiganensis VKM Ac-1403, Pseudomonas savastanoi pv. savastanoi VKM B-1546 and Pectobacterium carotovorum subsp. carotovorum VKM B-1247, and four Fusarium species (F. oxysporum VKM F-137, F. culmorum VKM F-2303, F. solani VKM F-142 and F. verticillioides VKM F-670), which cause diseases in plants and humans. The antimicrobial activity was first measured at the peptide concentration of 300 µM (Figure 3).
(§4) The antimicrobial activity of synthetic peptides was tested against the yeasts Candida albicans VKM Y-2994 and Cryptococcus neoformans VKM Y-2755, the bacteria Pseudomonas savastanoi pv. savastanoi VKM B-1546, Pectobacterium carotovorum subsp. carotovorum VKM B-1247 and Clavibacter michiganensis subsp. michiganensis VKM Ac-1403, and four Fusarium species: F. culmorum VKM F-2303, F. oxysporum VKM F-137, F. solani VKM F-142 and F. verticillioides VKM F-670. All cultures were obtained from the All-Russian Collection of Microorganisms (VKM). The details of the production and storage of cultures of microorganisms used in this study are described at the VKM Home page. Antimicrobial assays were accomplished according to the procedure described earlier. In short, yeasts were grown on the YPD-P medium and the bacteria P. carotovorum and Cl. michiganensis were cultured on a modified YPD-P medium. The Fusarium fungi were grown on potato dextrose agar at 25 °C for 7–8 days, and spores were washed off from the surface of the mycelia with sterile, distilled water. The antimicrobial activity of the peptides was measured in immunoassay microtiter plates according to the protocol of Broekaert et al.. With yeasts and bacteria, each well contained 10 µL of the tested peptide solution (final concentrations of 10–300 µM) in water, 80 µL of the medium and 10 µL of the microbial suspension. The plates were incubated at 30 °C for 24 h, and the absorbance of the suspension was measured on an Efos 9305 spectrophotometer (Sapphire, Moscow, Russia) at 594 nm. For Fusarium species, the wells of a microtiter plate were filled with 90 µL of the fungal spore suspension in half-strength potato dextrose broth at a concentration of 2000–3000 spores in 100 µL and 10 µL of aqueous solutions of peptides at final concentrations of 10–300 µM. After 38 h of incubation, the absorbance was recorded at 595 nm on a FilterMax F5 Multi-Mode Microplate Reader (Molecular Devices, San Jose, CA, USA). Antimicrobial activity is expressed in IC50 values, which show the concentration necessary for 50% inhibition of the pathogen growth; this was determined from a graph showing the activity dependence on peptide concentration.
(§5) For each pathogen, experiments on the peptide antimicrobial activity evaluation were carried out in triplicate per treatment. Mean values, standard deviations (SD), and the significance of differences (p ≤ 0.05) of the means between treatments and controls (t-test for independent variables) were determined using STATISTICA v. 6.1 software (StatSoft Inc., Tulsa, OK, USA).

Cr. neoformans cells [2] = experiment: Propidium iodide staining, fluorescence microscopy; format: cell-based, Cryptococcus neoformans; conditions: peptide 300 µM, 30 °C, 1 h, 0.03 mM PI 15 min
Method: as §1, §2

[3] = system: Pectobacterium carotovorum subsp. carotovorum VKM B-1247; conditions: 30 °C, 24 h, absorbance 594 nm; for Pathogen inhibition, % (P. carotovorum): 300 µM peptide, modified YPD-P medium, vs control without peptide, triplicate, mean
Method: All cultures were obtained from the All-Russian Collection of Microorganisms (VKM).
Mean values, standard deviations (SD), and the significance of differences (p ≤ 0.05) of the means between treatments and controls (t-test for independent variables) were determined using […] v. 6.1 software (StatSoft Inc., Tulsa, OK, USA).

[4] = system: F. verticillioides VKM F-670; format: cell-based, Fusarium verticillioides; conditions: for IC50: peptide 10–300 µM, 38 h, absorbance 595 nm, from activity vs concentration graph, mean ± SD
Method: as §3, §4, §5

Cr. neoformans cells [5] = experiment: Propidium iodide penetration, flow cytometry; format: cell-based, Cryptococcus neoformans; conditions: 28 °C, 2 h
Method: as §1
For flow cytometry experiments with Cr. neoformans, the yeasts were grown on the YPD medium at 28 °C for 48 h. After that, the cells were centrifuged at 12,000× g for 3 min, washed with MiliQ water and incubated with the peptides dissolved in water at a concentration of 300 µM at 28 °C for 2 h. The cells were stained with propidium iodide by direct addition of the dye to the incubation medium (final concentration of 2 µg/mL) and measured on a NovoCyte Flow cytometer (Agilent, Santa Clara, CA, USA) using the channel FL2 (488 nm excitation and 585 nm emission). The sample without peptides was used as a control.

[6] = system: Pseudomonas savastanoi pv. savastanoi VKM B-1546; format: cell-based; conditions: 30 °C, 24 h, absorbance 594 nm
Method: as §3, §4, §5

[7] = system: Cryptococcus neoformans VKM Y-2755; format: cell-based
Method: as §3, §4, §5

[8] = system: Clavibacter michiganensis subsp. michiganensis VKM Ac-1403; experiment: Growth inhibition of Cl. michiganensis in microtiter plates; format: cell-based; conditions: inhibition curves (Figure 4); highest tested concentration of 300 µM
Method: as §3
The antimicrobial activity of synthetic peptides was tested against the yeasts Candida albicans VKM Y-2994 and Cryptococcus neoformans VKM Y-2755, the bacteria Pseudomonas savastanoi pv. savastanoi VKM B-1546, Pectobacterium carotovorum subsp. carotovorum VKM B-1247 and Clavibacter michiganensis subsp. michiganensis VKM Ac-1403, and four Fusarium species: F. culmorum VKM F-2303, F. oxysporum VKM F-137, F. solani VKM F-142 and F. verticillioides VKM F-670. All cultures were obtained from the All-Russian Collection of Microorganisms (VKM). […] The antimicrobial activity of the peptides was measured in immunoassay microtiter plates according to the protocol of Broekaert et al.. […] The plates were incubated at 30 °C for 24 h, and the absorbance of the suspension was measured on an Efos 9305 spectrophotometer (Sapphire, Moscow, Russia) at 594 nm. […] After 38 h of incubation, the absorbance was recorded at 595 nm on a FilterMax F5 Multi-Mode Microplate Reader (Molecular Devices, San Jose, CA, USA). […]
as §5, with “6.1 software (StatSoft Inc., Tulsa, OK, USA).” left out

[9] = inhibition curves (Figure 4), highest tested concentration (300 µM)

CSCC[C@H](NC(=O)[C@H](CS)NC(=O)[C@H](C)NC(=O)CNC(=O)[C@H](CCCNC(=N)N)NC(=O)[C@H](CCCCN)NC(=O)[C@H](C)NC(=O)[C@H](CCCNC(=N)N)NC(=O)[C@H](CO)NC(=O)[C@H](CCCNC(=N)N)NC(=O)[C@H](C)NC(=O)[C@H](CS)NC(=O)[C@H](CCCNC(=N)N)NC(=O)[C@@H](NC(=O)[C@H](C)NC(=O)[C@H](CS)NC(=O)[C@H](CCCCN)NC(=O)CN)C(C)C)C(=O)N[C@@H](CCCCN)C(=O)O [TkSN1_39-57] (H-GKCAVRCARSRAKRGACMK-OH; N-terminus and C-terminus assumed)
Membrane permeabilization of C. albicans cells (PI staining) (C. albicans cells): induced membrane permeabilization
Inhibition of C. albicans at the highest tested concentration [1]: complete inhibition
Membrane permeabilization of Cr. neoformans cells (PI staining) (Cr. neoformans cells [2]): induced membrane permeabilization

C[C@H](NC(=O)[C@@H](N)CS)C(=O)NCC(=O)N[C@@H](CCCNC(=N)N)C(=O)NCC(=O)N[C@@H](CCC(N)=O)C(=O)N1CCC[C@H]1C(=O)N[C@@H](Cc1ccc(O)cc1)C(=O)N[C@H](C(=O)NCC(=O)N[C@@H](CO)C(=O)NCC(=O)N[C@@H](CS)C(=O)O)[C@@H](C)O [DEFL4-8_82-94] (H-CAGRGQPYTGSGC-OH; N-terminus and C-terminus assumed)
Pathogen inhibition, % (P. carotovorum) [3]: 42%
IC50 ([3]; read-out: IC50, μM P. carotovorum, peptide 10–300 µM, from activity vs concentration graph, mean ± SD): > 100 µM
Maximum inhibition of F. verticillioides at the highest tested concentration [4, 9]: 26%
IC50 [4]: > 100 µM

C[C@H](NC(=O)[C@H](CCCNC(=N)N)NC(=O)CNC(=O)[C@@H](NC(=O)[C@H](Cc1ccc(O)cc1)NC(=O)[C@@H]1CCCN1C(=O)[C@H](CCCNC(=N)N)NC(=O)CNC(=O)[C@H](CCCNC(=N)N)NC(=O)[C@H](C)NC(=O)[C@@H]1CCCN1C(=O)[C@@H](N)CS)[C@@H](C)O)C(=O)N[C@@H](CS)C(=O)O [DEFL4-37_90-102] (H-CPARGRPYTGRAC-OH; N-terminus and C-terminus assumed)
Membrane permeabilization of C. albicans cells (PI staining) (C. albicans cells): induced membrane permeabilization
Pathogen inhibition, % (P. carotovorum) [3]: 36%
Penetration of propidium iodide (PI) into Cr. neoformans cells (Cr. neoformans cells [5]; peptide 300 µM in water, PI 2 µg/mL, FL2 (488/585 nm)): 68.48%
Number of Cr. neoformans cells in flow cytometry (Cr. neoformans cells [5]; peptide 300 µM): reduction in the number of Cr. neoformans cells
Maximum inhibition of F. verticillioides at 150 µM ([4]; inhibition curves (Figure 4), peptide 150 µM): about 35%
IC50 [4]: > 100 µM
IC50 ([6]; peptide 10–300 µM, from activity vs concentration graph, mean ± SD, read-out: IC50, μM Ps. savastanoi): > 100 µM
Inhibition of Cr. neoformans at the highest tested concentration [7, 9]: 100%
IC50 ([7]; peptide 10–300 µM, 30 °C, 24 h, absorbance 594 nm, from activity vs concentration graph, mean ± SD, read-out: IC50, μM Cr. neoformans): > 100 µM
Inhibition of C. albicans at the highest tested concentration [1]: about 35%
IC50 ([1]; peptide 10–300 µM, 30 °C, 24 h, absorbance 594 nm, from activity vs concentration graph, mean ± SD): > 100 µM
Membrane permeabilization of Cr. neoformans cells (PI staining) (Cr. neoformans cells [2]): induced membrane permeabilization

CC[C@H](C)[C@H](NC(=O)[C@H](CCCCN)NC(=O)[C@H](CS)NC(=O)[C@H](Cc1ccc(O)cc1)NC(=O)CN)C(=O)N[C@@H](CO)C(=O)N[C@@H](CCCNC(=N)N)C(=O)N[C@@H](CS)C(=O)N[C@H](C(=O)N[C@@H](CS)C(=O)N[C@@H](CCC(N)=O)C(=O)N[C@@H](CCCNC(=N)N)C(=O)N[C@@H](CCC(=O)O)C(=O)N[C@@H](CS)C(=O)O)[C@@H](C)O [DEFL1-11_55-68] (H-GYCKISRCTCQREC-OH; N-terminus and C-terminus assumed)
Pathogen inhibition, % (Ps. savastanoi) ([6]; 300 µM peptide, vs control without peptide, triplicate, mean): failed to suppress

CC(C)C[C@H](NC(=O)[C@H](CCCNC(=N)N)NC(=O)[C@H](C)NC(=O)[C@H](CS)NC(=O)[C@H](CS)NC(=O)CNC(=O)[C@@H]1CCCN1)C(=O)N[C@@H](CCCNC(=N)N)C(=O)N[C@@H](C)C(=O)N[C@@H](CCC(N)=O)C(=O)N[C@@H](CCCNC(=N)N)C(=O)N[C@@H](C)C(=O)N[C@@H](CS)C(=O)O [TkLTP2.25_50-62] (H-PGCCARLRAQRAC-OH; N-terminus and C-terminus assumed)
Inhibition of Cl. michiganensis at the highest tested concentration [8]: 95%
Membrane permeabilization of C. albicans cells (PI staining) (C. albicans cells): induced membrane permeabilization
Membrane permeabilization of Cr. neoformans cells (PI staining) (Cr. neoformans cells [2]): induced membrane permeabilization
